Test results from US11046680B1, “Heteroaryl-substituted triazoles as APJ receptor agonists” (priority 2016, dated 2021).

Molecular target: human APJ receptor (Homo sapiens (Human), UniProt P35414)
Experiment: biochemical
Type: biochemical
Settings: [35S]GTPγS binding, CHO membranes expressing human APJ receptor; read-out: Activity hAPJ SPA EC50 IP
Method in brief: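 Membranes of a stable CHO line carrying human APJ (pFLAG-CMV-3) were used in a GTPγS binding format; buffer GDP, MgCl2 and NaCl were optimized, and plates were read after 90 min at RT.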

Chain of human APJ receptor (P35414 whole entry): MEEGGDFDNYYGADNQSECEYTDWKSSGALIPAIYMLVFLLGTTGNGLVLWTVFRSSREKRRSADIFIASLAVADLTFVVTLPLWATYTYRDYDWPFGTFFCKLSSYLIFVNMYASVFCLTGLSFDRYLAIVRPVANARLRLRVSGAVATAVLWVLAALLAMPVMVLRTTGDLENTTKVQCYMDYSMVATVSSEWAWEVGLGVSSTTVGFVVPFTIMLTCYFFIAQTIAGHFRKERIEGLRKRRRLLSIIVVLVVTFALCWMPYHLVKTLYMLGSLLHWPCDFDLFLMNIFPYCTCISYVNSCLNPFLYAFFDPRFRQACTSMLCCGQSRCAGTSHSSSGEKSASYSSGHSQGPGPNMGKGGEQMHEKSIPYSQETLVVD

Row | Compound | EC50 [nM]
1 | COc1ncnc(OC)c1-n1c(NS(=O)(=O)[C@@H](C)[C@H](C)c2ncc(C)cn2)nnc1-c1nc(C)cs1 [Example 3.0, (2S,3R)-N-(4-(4,6-dimethoxypyrimidin-5-yl)-5-(4-methylthiazol-2-yl)-4H-1,2,4-triazol-3-yl)-3-(5-methylpyrimidin-2-yl)butane-2-sulfonamide] | 2.6
2 | COc1nc[nH]c(=O)c1-n1c(NS(=O)(=O)[C@@H](C)Cc2ncc(F)cn2)nnc1-c1ccn(C)n1 (racemic) [Example 7.0, (2R)-1-(5-fluoro-2-pyrimidinyl)-N-(4-(4-methoxy-6-oxo-1,6-dihydro-5-pyrimidinyl)-5-(1-methyl-1H-pyrazol-3-yl)-4H-1,2,4-triazol-3-yl)-2-propanesulfonamide and (2S)-1-(5-fluoro-2-pyrimidinyl)-N-(4-(4-methoxy-6-oxo-1,6-dihydro-5-pyrimidinyl)-5-(1-methyl-1H-pyrazol-3-yl)-4H-1,2,4-triazol-3-yl)-2-propanesulfonamide] | 51
3 | COc1ccccc1-n1c(NS(=O)(=O)CCc2ccc(Cl)cc2)nnc1-c1cccs1 [Example 236.0, 2-(4-chlorophenyl)-N-(4-(2-methoxyphenyl)-5-(thiophen-2-yl)-4H-1,2,4-triazol-3-yl)ethanesulfonamide] | 120
4 | COc1ccc([C@@H](OC)[C@H](C)S(=O)(=O)Nc2nnc(-c3ccn(C)n3)n2-c2c(OC)ncnc2OC)nc1 [Example 455.0, (1R,2S)-N-(4-(4,6-dimethoxy-5-pyrimidinyl)-5-(1-methyl-1H-pyrazol-3-yl)-4H-1,2,4-triazol-3-yl)-1-methoxy-1-(5-methoxy-2-pyridinyl)-2-propanesulfonamide] | 5.7
5 | COc1cccc(OC)c1-n1c(NS(=O)(=O)[C@@H](C)[C@H](C)c2ncc(F)cn2)nnc1-c1ccn(C(F)F)n1 [Example 194.0, (2S,3R)-N-(5-(1-(difluoromethyl)-1H-pyrazol-3-yl)-4-(2,6-dimethoxyphenyl)-4H-1,2,4-triazol-3-yl)-3-(5-fluoro-2-pyrimidinyl)-2-butanesulfonamide] | 0.48
6 | COc1cccc(OC)c1-n1c(NS(=O)(=O)CCc2ccc(Cl)cc2)nnc1-c1cc(C)on1 [Example 145.0, 2-(4-chlorophenyl)-N-(4-(2,6-dimethoxyphenyl)-5-(5-methylisoxazol-3-yl)-4H-1,2,4-triazol-3-yl)ethanesulfonamide] | 71
7 | O=S(=O)(Cc1ccc(Cl)cc1)Nc1nnc(-c2cccs2)n1-c1ccccc1C(F)(F)F [Example 356.0, 1-(4-Chlorophenyl)-N-(5-(thiophen-2-yl)-4-(2-(trifluoromethyl)phenyl)-4H-1,2,4-triazol-3-yl)methanesulfonamide] | > 12500
8 | COc1cccc(OC)c1-n1c(NS(=O)(=O)C(C)Cc2ncc(F)cn2)nnc1-c1cc(C)no1 (stereo in doubt) [Example 57.0, (R)-N-(4-(2,6-dimethoxyphenyl)-5-(3-methylisoxazol-5-yl)-4H-1,2,4-triazol-3-yl)-1-(5-fluoropyrimidin-2-yl)propane-2-sulfonamide and (R)-N-(4-(2,6-dimethoxyphenyl)-5-(3-methylisoxazol-5-yl)-4H-1,2,4-triazol-3-yl)-1-(5-fluoropyrimidin-2-yl)propane-2-sulfonamide] | 42
9 | COc1cccc(OC)c1-n1c(NS(=O)(=O)[C@@H]2C[C@@H](O)CN(c3ncc(F)cn3)C2)nnc1-c1nc(C)cs1 (single isomer, unassigned) [Example 257.0, (3R,5R)-N-(4-(2,6-dimethoxyphenyl)-5-(4-methyl-1,3-thiazol-2-yl)-4H-1,2,4-triazol-3-yl)-1-(5-fluoro-2-pyrimidinyl)-5-hydroxy-3-piperidinesulfonamide or (3S,5S)-N-(4-(2,6-dimethoxyphenyl)-5-(4-methyl-1,3-thiazol-2-yl)-4H-1,2,4-triazol-3-yl)-1-(5-fluoro-2-pyrimidinyl)-5-hydroxy-3-piperidinesulfonamide] | 3.9
10 | COc1cccc(OC)c1-n1c(NS(=O)(=O)[C@@H](C)[C@H](C)c2ncc(C)cn2)nnc1-c1cc2n(n1)CCC2 [Example 219.0, (2S,3R)-N-(5-(5,6-dihydro-4H-pyrrolo[1,2-b]pyrazol-2-yl)-4-(2,6-dimethoxyphenyl)-4H-1,2,4-triazol-3-yl)-3-(5-methyl-2-pyrimidinyl)-2-butanesulfonamide] | 1.7
11 | CO[C@H](c1ncc(Cl)cn1)[C@H](C)S(=O)(=O)Nc1nnc(-c2cnn3ccccc23)n1C1CC1 [Example 507.0, (1R,2S)-1-(5-chloropyrimidin-2-yl)-N-(4-cyclopropyl-5-(pyrazolo[1,5-a]pyridin-3-yl)-4H-1,2,4-triazol-3-yl)-1-methoxypropane-2-sulfonamide] | 38
12 | COc1cccc(OC)c1-n1c(NS(=O)(=O)[C@@H](C)[C@H](OC)c2ncc(Cl)cn2)nnc1-c1n[nH]c2ccc(Cl)cc12 [Example 422.0, (1R,2S)-N-(5-(5-chloro-1H-indazol-3-yl)-4-(2,6-dimethoxyphenyl)-4H-1,2,4-triazol-3-yl)-1-(5-chloropyrimidin-2-yl)-1-methoxypropane-2-sulfonamide] | 6.2
13 | COc1cnc([C@H](C)[C@@H](C)S(=O)(=O)Nc2nnc(-c3ccn(C)n3)n2-c2c(OC)cccc2OC)cn1 [Example 301.0, (2R,3S)-N-(4-(2,6-dimethoxyphenyl)-5-(1-methyl-1H-pyrazol-3-yl)-4H-1,2,4-triazol-3-yl)-3-(5-methoxy-2-pyrazinyl)-2-butanesulfonamide] | 11
14 | COc1cccc(OC)c1-n1c(NS(=O)(=O)[C@H](C)[C@@H](C)c2ncc(C)cn2)nnc1-c1nc(C)cs1 (stereo in doubt) [Example 1.0, (2R,3 S)-N-(4-(2,6-dimethoxyphenyl)-5-(4-methylthiazol-2-yl)-4H-1,2,4-triazol-3-yl)-3-(5-methylpyrimidin-2-yl)butane-2-sulfonamide] | 0.13
15 | COc1ccc(S(C)(=O)=O)cc1-n1c(NS(=O)(=O)CCc2ccc(Cl)cc2)nnc1-c1cccs1 [Example 312.0, 2-(4-Chlorophenyl)-N-(4-(2-methoxy-5-(methylsulfonyl)phenyl)-5-(thiophen-2-yl)-4H-1,2,4-triazol-3-yl)ethanesulfonamide] | 76
16 | COc1cccc(OC)c1-n1c(NS(=O)(=O)[C@@H](C)[C@H](OC)c2ncc(Cl)cn2)nnc1-c1noc(C)c1C [Example 515.0, (1R,2S)-1-(5-chloropyrimidin-2-yl)-N-(4-(2,6-dimethoxyphenyl)-5-(4,5-dimethylisoxazol-3-yl)-4H-1,2,4-triazol-3-yl)-1-methoxypropane-2-sulfonamide] | 0.93
17 | COc1cccc(OC)c1-n1c(NS(=O)(=O)[C@@H](C)[C@H](OC)c2ncc(C)cn2)nnc1-c1cc(C)on1 [Example 425.0, (1R,25)-N-(4-(2,6-dimethoxyphenyl)-5-(5-methylisoxazol-3-yl)-4H-1,2,4-triazol-3-yl)-1-sulfonamide] | 8.1
18 | (2R,3S)-N-(4-(2,6-dimethoxyphenyl)-5-(1-methyl-1H-pyrazol-3-yl)-4H-1,2,4-triazol-3-yl)-3-(5-methyl-2-pyrazinyl)-2-butanesulfonamide and (2S,3R)-N-(4-(2,6-dimethoxyphenyl)-5-(1-methyl-1H-pyrazol-3-yl)-4H-1,2,4-triazol-3-yl)-3-(5-methyl-2-pyrazinyl)-2-butanesulfonamide [Example 279.0] | 2.8
19 | COc1cccc(OC)c1-n1c(NS(=O)(=O)[C@@H](C)[C@@H](OC(C)C)c2cnc(C)cn2)nnc1-c1cc(C)on1 [Example 497.0, (1S,2S)-N-(4-(2,6-dimethoxyphenyl)-5-(5-methylisoxazol-3-yl)-4H-1,2,4-triazol-3-yl)-1-isopropoxy-1-(5-methylpyrazin-2-yl)propane-2-sulfonamide] | 15
20 | CO[C@H](c1ncc(C)cn1)[C@H](C)S(=O)(=O)Nc1nnc(-c2ccn(C)n2)n1-c1c(F)cccc1F [Example 233.0, (1R,2S)-N-(4-(2,6-difluorophenyl)-5-(1-methyl-1H-pyrazol-3-yl)-4H-1,2,4-triazol-3-yl)-1-methoxy-1-(5-methyl-2-pyrimidinyl)-2-propanesulfonamide] | 17
21 | COc1cccc(OC)c1-n1c(NS(=O)(=O)[C@@H](C)[C@H](OC)c2ncc(C)cn2)nnc1-c1csc(C)n1 [Example 338.0, (1R,2S)-N-(4-(2,6-dimethoxyphenyl)-5-(2-methyl-1,3-thiazol-4-yl)-4H-1,2,4-triazol-3-yl)-1-methoxy-1-(5-methyl-2-pyrimidinyl)-2-propanesulfonamide] | 0.34
22 | COc1cnc([C@@H](C)[C@H](C)S(=O)(=O)Nc2nnc(-c3cnn4c3CCC4)n2-c2c(OC)cccc2OC)cn1 [Example 486.0, (2S,3R)-N-(5-(5,6-dihydro-4H-pyrrolo[1,2-b]pyrazo1-3-yl)-4-(2,6-dimethoxyphenyl)-4H-1,2,4-triazol-3-yl)-3-(5-methoxypyrazin-2-yl)butane-2-sulfonamide] | 0.29
23 | COc1cccc(OC)c1-n1c(NS(=O)(=O)[C@@H](C)[C@H](O)c2cn3ccccc3n2)nnc1-c1ccn(C)n1 (single isomer, unassigned) [Example 350.0, (1R,2S)-N-(4-(2,6-Dimethoxyphenyl)-5-(1-methyl-1H-pyrazol-3-yl)-4H-1,2,4-triazol-3-yl)-1-hydroxy-1-imidazo[1,2-a]pyridin-2-yl-2-propanesulfonamide or (1S,2R)-N-(4-(2,6-dimethoxyphenyl)-5-(1-methyl-1H-pyrazol-3-yl)-4H-1,2,4-triazol-3-yl)-1-hydroxy-1-imidazo[1,2-a]pyridin-2-yl-2-propanesulfonamide] | 6.1
24 | CCc1csc(-c2nnc(NS(=O)(=O)[C@H](C)Cc3ncc(F)cn3)n2-c2c(OC)cccc2OC)n1 (single isomer, unassigned) [Example 104.0, (R)-N-(4-(2,6-dimethoxyphenyl)-5-(4-ethylthiazol-2-yl)-4H-1,2,4-triazol-3-yl)-1-(5-fluoropyrimidin-2-yl)propane-2-sulfonamide or (S)-N-(4-(2,6-dimethoxyphenyl)-5-(4-ethylthiazol-2-yl)-4H-1,2,4-triazol-3-yl)-1-(5-fluoropyrimidin-2-yl)propane-2-sulfonamide] | 4.6
